The NIST ThermoML archive (doi:10.1021/je100362p)
Numbers after ± are expanded uncertainties.

Tests used:
[1] = refractive index (Na D-line) (dimensionless); xn = mol fraction of the nth substance listed; settings: 101 kPa, Liquid, Standard Abbe refractometry
[2] = xn = mol fraction of the nth substance listed; settings: 101 kPa, Liquid; for speed of sound: Sing-around technique in a fixed-path interferometer

COc1ccccc1 [anisole] + CCCCCCCCCCO
Settings | mass density, 298.15 K [kg/m3] | mass density, 303.15 K [kg/m3] | mass density, 308.15 K [kg/m3] | refractive index, 298.15 K | refractive index, 303.15 K | refractive index, 308.15 K | speed of sound, 298.15 K [m/s] | speed of sound, 303.15 K [m/s] | speed of sound, 308.15 K [m/s]
[1], x1 = 0.0817 | – | – | – | 1.43761 ± 0.00056 | 1.4356 ± 0.00058 | 1.43301 ± 0.0006 | – | – | –
[1], x1 = 0.144 | – | – | – | 1.44029 ± 0.00059 | 1.43803 ± 0.00061 | 1.43539 ± 0.00062 | – | – | –
[1], x1 = 0.2047 | – | – | – | 1.44304 ± 0.0006 | 1.44069 ± 0.00062 | 1.43799 ± 0.00063 | – | – | –
[1], x1 = 0.273 | – | – | – | 1.44629 ± 0.00062 | 1.44389 ± 0.00062 | 1.44125 ± 0.00062 | – | – | –
[1], x1 = 0.3484 | – | – | – | 1.45029 ± 0.00061 | 1.44799 ± 0.00062 | 1.44522 ± 0.00064 | – | – | –
[1], x1 = 0.4099 | – | – | – | 1.45394 ± 0.00061 | 1.45164 ± 0.00063 | 1.44877 ± 0.00064 | – | – | –
[1], x1 = 0.4874 | – | – | – | 1.45908 ± 0.0006 | 1.45684 ± 0.00062 | 1.45398 ± 0.00065 | – | – | –
[1], x1 = 0.544 | – | – | – | 1.46319 ± 0.00059 | 1.46099 ± 0.00062 | 1.45815 ± 0.00065 | – | – | –
[1], x1 = 0.6071 | – | – | – | 1.46829 ± 0.00058 | 1.46616 ± 0.00062 | 1.46323 ± 0.00066 | – | – | –
[1], x1 = 0.6699 | – | – | – | 1.47385 ± 0.00058 | 1.47181 ± 0.00062 | 1.46884 ± 0.00066 | – | – | –
[1], x1 = 0.7359 | – | – | – | 1.48043 ± 0.00057 | 1.47853 ± 0.00062 | 1.47539 ± 0.00066 | – | – | –
[1], x1 = 0.8171 | – | – | – | 1.48959 ± 0.00059 | 1.48774 ± 0.0006 | 1.48475 ± 0.00063 | – | – | –
[1], x1 = 0.91 | – | – | – | 1.50162 ± 0.00051 | 1.49999 ± 0.0006 | 1.49685 ± 0.00067 | – | – | –
[1], x1 = 0.9464 | – | – | – | 1.50672 ± 0.00047 | 1.50539 ± 0.00057 | 1.50231 ± 0.00069 | – | – | –
[1], x1 = 1 | – | – | – | 1.51495 ± 0.00041 | 1.51395 ± 0.00054 | 1.51095 ± 0.0007 | – | – | –
[2], x1 = 0.0817 | 833.984 ± 0.54 | 830.48 ± 0.55 | 826.944 ± 0.55 | – | – | – | 1377.1 ± 1.1 | 1359.8 ± 1.1 | 1342.7 ± 1.1
[2], x1 = 0.144 | 840.044 ± 0.53 | 836.478 ± 0.54 | 832.875 ± 0.54 | – | – | – | 1375.3 ± 1.1 | 1357.9 ± 1.1 | 1340.7 ± 1.1
[2], x1 = 0.2047 | 846.31 ± 0.52 | 842.682 ± 0.52 | 839.02 ± 0.53 | – | – | – | 1373.6 ± 1.1 | 1356.1 ± 1.1 | 1338.8 ± 1.1
[2], x1 = 0.273 | 853.826 ± 0.5 | 850.126 ± 0.51 | 846.4 ± 0.52 | – | – | – | 1371.9 ± 1.1 | 1354.2 ± 1.1 | 1336.8 ± 1.1
[2], x1 = 0.3484 | 862.774 ± 0.49 | 858.992 ± 0.49 | 855.195 ± 0.5 | – | – | – | 1370.2 ± 1.1 | 1352.4 ± 1.1 | 1334.8 ± 1.1
[2], x1 = 0.4099 | 870.64 ± 0.47 | 866.789 ± 0.48 | 862.929 ± 0.49 | – | – | – | 1369.4 ± 1.1 | 1351.4 ± 1.1 | 1333.6 ± 1.1
[2], x1 = 0.4874 | 881.37 ± 0.45 | 877.429 ± 0.46 | 873.48 ± 0.47 | – | – | – | 1368.8 ± 1.1 | 1350.8 ± 1.1 | 1332.8 ± 1.1
[2], x1 = 0.544 | 889.862 ± 0.43 | 885.853 ± 0.44 | 881.832 ± 0.45 | – | – | – | 1369.2 ± 1.1 | 1350.9 ± 1.1 | 1332.8 ± 1.1
[2], x1 = 0.6071 | 900.075 ± 0.42 | 895.987 ± 0.42 | 891.877 ± 0.43 | – | – | – | 1370.4 ± 1.1 | 1351.9 ± 1.1 | 1333.6 ± 1.1
[2], x1 = 0.6699 | 911.097 ± 0.4 | 906.926 ± 0.4 | 902.722 ± 0.41 | – | – | – | 1372.3 ± 1.1 | 1353.6 ± 1.1 | 1335 ± 1.1
[2], x1 = 0.7359 | 923.763 ± 0.37 | 919.5 ± 0.38 | 915.191 ± 0.39 | – | – | – | 1375.5 ± 1.1 | 1356.5 ± 1.1 | 1337.6 ± 1.1
[2], x1 = 0.8171 | 941.067 ± 0.34 | 936.682 ± 0.35 | 932.241 ± 0.36 | – | – | – | 1381.6 ± 1.1 | 1362.2 ± 1.1 | 1343 ± 1.1
[2], x1 = 0.91 | 963.68 ± 0.3 | 959.139 ± 0.31 | 954.549 ± 0.32 | – | – | – | 1392.6 ± 1.1 | 1372.8 ± 1.1 | 1352.9 ± 1.1
[2], x1 = 0.9464 | 973.453 ± 0.28 | 968.846 ± 0.29 | 964.201 ± 0.3 | – | – | – | 1398 ± 1.1 | 1377.9 ± 1.1 | 1357.9 ± 1.1
[2], x1 = 1 | 989.145 ± 0.25 | 984.433 ± 0.26 | 979.712 ± 0.27 | – | – | – | 1406.9 ± 1.1 | 1386.8 ± 1.1 | 1366.5 ± 1.1
